Data published in patent US20140179664A1, “Heterocyclyl Pyrimidine Analogues As JAK Inhibitors” (Cellzome Limited, priority 2011, published 2014).

Molecular target: T1, JAK3 (Homo sapiens, UniProt P52333)
T1 construct: endogenous in cells; host or cells: Molt4 (ATCC CRL-1582) and Ramos (ATCC CRL-1596), mixed lysate 1:2
T1 sequence (P52333 1-1124): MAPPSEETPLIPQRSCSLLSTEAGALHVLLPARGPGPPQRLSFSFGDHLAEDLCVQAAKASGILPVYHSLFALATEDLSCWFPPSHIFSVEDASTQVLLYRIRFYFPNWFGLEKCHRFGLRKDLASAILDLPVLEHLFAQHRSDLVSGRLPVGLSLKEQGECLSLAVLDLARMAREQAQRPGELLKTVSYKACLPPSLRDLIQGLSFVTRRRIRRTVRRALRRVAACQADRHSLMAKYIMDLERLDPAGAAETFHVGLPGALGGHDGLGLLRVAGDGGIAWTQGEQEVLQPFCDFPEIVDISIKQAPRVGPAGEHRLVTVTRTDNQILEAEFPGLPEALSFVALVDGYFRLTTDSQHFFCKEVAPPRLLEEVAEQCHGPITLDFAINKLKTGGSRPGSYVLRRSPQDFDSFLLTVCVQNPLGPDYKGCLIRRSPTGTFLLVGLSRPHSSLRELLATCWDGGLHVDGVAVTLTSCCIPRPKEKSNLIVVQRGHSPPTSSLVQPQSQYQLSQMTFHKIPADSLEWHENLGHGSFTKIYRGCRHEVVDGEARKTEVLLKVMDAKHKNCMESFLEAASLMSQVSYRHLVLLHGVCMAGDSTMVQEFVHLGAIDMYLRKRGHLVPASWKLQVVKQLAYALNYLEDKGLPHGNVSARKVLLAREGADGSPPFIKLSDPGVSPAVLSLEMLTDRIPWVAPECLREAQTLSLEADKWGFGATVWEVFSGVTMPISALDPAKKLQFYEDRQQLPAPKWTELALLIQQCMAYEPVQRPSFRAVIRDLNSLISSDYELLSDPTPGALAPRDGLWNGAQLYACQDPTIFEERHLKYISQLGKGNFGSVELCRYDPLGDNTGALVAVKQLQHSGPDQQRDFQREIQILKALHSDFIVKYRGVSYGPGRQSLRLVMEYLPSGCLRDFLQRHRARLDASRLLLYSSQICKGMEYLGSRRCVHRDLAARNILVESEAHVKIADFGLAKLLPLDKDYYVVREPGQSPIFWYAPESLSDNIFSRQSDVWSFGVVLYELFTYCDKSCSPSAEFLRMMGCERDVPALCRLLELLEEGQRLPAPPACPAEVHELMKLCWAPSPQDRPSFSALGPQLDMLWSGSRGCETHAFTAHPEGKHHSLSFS
Experiment: Kinobeads assay, JAK3
Type: binding
Conditions: mixed Molt4/Ramos lysate, read-out: Inhibition values (IC50) JAK3
Procedure: The compounds of the present invention as described in the previous examples were tested in a Kinobeads™ assay as described for ZAP-70 (WO-A 2007/137867). Briefly, test compounds (at various concentrations) and the affinity matrix with the immobilized aminopyrido-pyrimidine ligand 24 were added to cell lysate aliquots and allowed to bind to the proteins in the lysate sample. After the incubation time the beads with captured proteins were separated from the lysate. Bound proteins were then eluted and the presence of JAK1, JAK2, JAK3 and TYK2 was detected and quantified using specific antibodies in a dot blot procedure and the Odyssey infrared detection system. Dose response curves for individual kinases were generated and IC50 values calculated. Kinobeads™ assays for ZAP-70 (WO-A 2007/137867) and for kinase selectivity profiling (WO-A 2006/134056) have been previously described.
The affinity matrix was washed two times with 15 mL of lx DP buffer containing 0.2% NP40 (IGEPAL® CA-630, Sigma, #13021) and then resuspended in 1×DP buffer containing 0.2% NP40 (3% beads slurry).
5×DP buffer: 250 mM Tris-HCl pH 7.4, 25% Glycerol, 7.5 mM MgCl2, 750 mM NaCl, 5 mM Na3VO4; filter the 5×DP buffer through a 0.22 μm filter and store in aliquots at −80° C. The 5×DP buffer is diluted with H2O to 1×DP buffer containing 1 mM DTT and 25 mM NaF.
Stock solutions of test compounds were prepared in DMSO. In a 96 well plate […] solution of diluted test compounds at 5 mM in DMSO were prepared. Starting with this solution a 1:3 dilution series (9 steps) was prepared. For control experiments (no test compound) a buffer containing 2% DMSO was used.
Molt4 cells (ATCC catalogue number CRL-1582) and Ramos cells (ATCC catalogue number CRL-1596) were grown in 1 L Spinner flasks (Integra Biosciences, #182101) in suspension in RPMI 1640 medium (Invitrogen, #21875-034) supplemented with 10% Fetal Bovine Serum (Invitrogen) at a density between 0.15×10^6 and 1.2×10^6 cells/mL. Cells were harvested by centrifugation, washed once with 1×PBS buffer (Invitrogen, #14190-094) and cell pellets were frozen in liquid nitrogen and subsequently stored at −80° C. Cells were homogenized in a Potter S homogenizer in lysis buffer: 50 mM Tris-HCl, 0.8% NP40, 5% glycerol, 150 mM NaCl, 1.5 mM MgCl2, 25 mM NaF, 1 mM sodium vanadate, 1 mM DTT, pH 7.5. One complete EDTA-free tablet (protease inhibitor cocktail, Roche Diagnostics, 1873580) per 25 mL buffer was added. The material was dounced 10 times using a mechanized POTTER S, transferred to 50 mL falcon tubes, incubated for 30 minutes on ice and spun down for 10 minutes at 20,000 g at 4° C. (10,000 rpm in Sorvall SLA600, precooled). The supernatant was transferred to an ultracentrifuge (UZ)-polycarbonate tube (Beckmann, 355654) and spun for 1 hour at 100.000 g at 4° C. (33.500 rpm in Ti50.2, precooled). The supernatant was transferred again to a fresh 50 mL falcon tube, the protein concentration was determined by a Bradford assay (BioRad) and samples containing 50 mg of protein per aliquot were prepared. The samples were immediately used for experiments or frozen in liquid nitrogen and stored frozen at −80° C.
Cell lysate (approximately 50 mg protein per plate) was thawed in a water bath at room temperature and then stored on ice. To the thawed cell lysate 1×DP 0.8% NP40 buffer containing protease inhibitors (1 tablet for 25 mL buffer; EDTA-free protease inhibitor cocktail; Roche Diagnostics 1873580) was added in order to reach a final protein concentration of 10 mg/mL total protein. The diluted cell lysate was stored on ice. Mixed Molt4/Ramos lysate was prepared by combining one volume of Molt4 lysate and two volumes of Ramos lysate (ratio 1:2).
To a 96 well filter plate (Multiscreen HTS, BV Filter Plates, Millipore #MSBVN1250) were added per well: 100 μL affinity matrix (3% beads slurry), […], of compound solution, and 50 μL of diluted lysate. […]

Row | IC50 [nM] | SMILES
1 | 100 to 1000 | CCC(Nc1nc(Nc2cnn(CC(N)=O)c2)ncc1Cl)c1ccccc1F (stereo not drawn) [Compound 126]
2 | < 100 | CCn1cc(Nc2ncc(Cl)c(N[C@H](CO)c3cccnc3)n2)cn1 [Compound 97]
3 | < 100 | COc1ccccc1[C@@H](CO)Nc1nc(Nc2cnn(C(C)C)c2)ncc1Cl [Compound 105]
4 | < 100 | Cn1cc(Nc2ncc(Cl)c(NC(CO)c3ccccc3Cl)n2)cn1 (stereo not drawn) [Compound 117]
5 | < 100 | OCCn1cc(Nc2ncc(Cl)c(NC(CO)c3ccccc3Cl)n2)cn1 (stereo not drawn) [Compound 120]
6 | < 100 | NC(=O)Cn1cc(Nc2ncc(Cl)c(N[C@H](CO)c3cc(F)cc(F)c3)n2)cn1 [Compound 144]
7 | < 100 | CCn1cc(Nc2ncc(Cl)c(N[C@H](CO)c3ccccc3F)n2)cn1 [Compound 109]
8 | < 100 | Cc1cnc(Nc2cnn(C)c2)nc1N[C@H](CO)c1cc(F)ccc1F [Compound 163]
9 | < 100 | Cn1cc(Nc2ncc(Cl)c(N[C@H](CO)c3cc(F)ccc3F)n2)cn1 [Compound 139]
10 | < 100 | CNC(=O)Cn1cc(Nc2ncc(Cl)c(NC(CO)c3ccccc3Cl)n2)cn1 (stereo not drawn) [Compound 119]
11 | < 100 | CNC(=O)Cn1cc(Nc2ncc(Cl)c(N[C@H](CO)c3cccc(OC)c3)n2)cn1 [Compound 99]
12 | 100 to 1000 | COc1cccc([C@@H](CO)Nc2nc(Nc3cnn(C(C)C)c3)ncc2Cl)c1 [Compound 106]
13 | < 100 | NC(=O)Cn1cc(Nc2ncc(F)c(N[C@H](CO)c3cc(F)cc(F)c3)n2)cn1 [Compound 160]
14 | < 100 | NC(=O)Cn1cc(Nc2ncc(Cl)c(NC(CO)c3ccccc3Cl)n2)cn1 (stereo not drawn) [Compound 118]
15 | 100 to 1000 | Cn1cc(-c2cccc(C(CO)Nc3nc(Nc4cnn(CCO)c4)ncc3Cl)c2)cn1 (stereo not drawn) [Compound 94]
16 | < 100 | Cn1cc(Nc2ncc(F)c(N[C@H](CO)c3cc(F)ccc3F)n2)cn1 [Compound 146]
17 | 100 to 1000 | Cc1cnc(Nc2cnn(CC(F)F)c2)nc1N[C@H](CO)c1cc(F)ccc1F [Compound 166]

Row | IC50 [nM] | SMILES
18 | < 100 | CC(C)NC(=O)Cn1cc(Nc2ncc(Cl)c(N[C@H](CO)c3ccccc3F)n2)cn1 [Compound 115]
19 | < 100 | CC(C)n1cc(Nc2ncc(Cl)c(N[C@H](CO)c3cccnc3)n2)cn1 [Compound 107]
20 | < 100 | Cn1cc(Nc2ncc(C(F)(F)F)c(N[C@H](CO)c3ccccc3)n2)cn1 [Compound 6]
21 | < 100 | Cn1cc(Nc2ncc(Cl)c(NC(CO)c3cccc(N4CCOCC4=O)c3)n2)cn1 (stereo not drawn) [Compound 124]
22 | < 100 | Cn1cc(Nc2ncc(Cl)c(N[C@H](CO)c3cccc(N4CCOCC4=O)c3F)n2)cn1 [Compound 162]
23 | < 100 | Cc1cnc(Nc2cnn(CC(=O)N(C)C)c2)nc1N[C@H](CO)c1ccccc1 [Compound 134]
24 | 100 to 1000 | CNC(=O)Cn1cc(Nc2ncc(Cl)c(NC(CO)c3ccccc3C(F)(F)F)n2)cn1 (stereo not drawn) [Compound 131]
25 | 100 to 1000 | CNC(=O)Cn1cc(Nc2ncc(F)c(N[C@H](CO)c3cc(F)cc(-c4cnn(C)c4)c3)n2)cn1 [Compound 157]
26 | 100 to 1000 | Cn1cc(Nc2ncc(C(F)(F)F)c(NC(C)(CO)c3ccccc3)n2)cn1 (stereo not drawn) [Compound 8]
27 | < 100 | NC(=O)Cn1cc(Nc2ncc(Cl)c(N[C@H](CO)c3cc(F)ccc3F)n2)cn1 [Compound 140]
28 | < 100 | CNC(=O)Cn1cc(Nc2ncc(Cl)c(NC(CO)c3cc(F)cc(F)c3)n2)cn1 (stereo not drawn) [Compound 123]
29 | < 100 | CCn1cc(Nc2ncc(Cl)c(N[C@H](CO)c3cccc(OC)c3)n2)cn1 [Compound 96]
30 | < 100 | O=C(Cn1cc(Nc2ncc(Cl)c(N[C@H](CO)c3cccnc3)n2)cn1)N1CCOCC1 [Compound 104]
31 | 100 to 1000 | Cn1cc(Nc2ncc(F)c(N[C@H](CO)c3cc(F)cc(-c4cnn(C)c4)c3)n2)cn1 [Compound 150]
32 | 100 to 1000 | CCC(Nc1nc(Nc2cnn(C)c2)ncc1Cl)c1ccccc1F (stereo not drawn) [Compound 125]
33 | < 100 | Cn1cc(Nc2ncc(Cl)c(N[C@H](CO)c3cccc(N4CCOCC4=O)c3)n2)cn1 [Compound 138]
